Laboratory results: ChEMBL document CHEMBL4382234, “Fluoroquinolone-isatin hybrids and their biological activities” (Eur J Med Chem, 2019)
Values after ≈ are worked out from the molar mass of the structure shown.

Tests used:
Assay type in all cases: functional
[1] = system: Mycobacterium tuberculosis; test: Antimycobacterial activity against Mycobacterium tuberculosis H37Rv ATCC 27294 by rapid direct susceptibility test
[2] = system: Mycolicibacterium smegmatis; test: Antimycobacterial activity against Mycobacterium smegmatis CMCC 93202 after 72 hrs by double dilution method; conditions: CMCC 93202, 72 h
[3] = system: Mycobacterium tuberculosis; test: Antimycobacterial activity against Mycobacterium tuberculosis H37Rv after 3 to 7 days by rapid direct susceptibility test
[4] = system: Mycobacterium tuberculosis; test: Antitubercular activity against Mycobacterium tuberculosis H37Rv by microplate alamar blue assay

COc1c(N2C[C@@H]3CCCN(CN4C(=O)C(=O)c5ccccc54)[C@@H]3C2)c(F)cc2c(=O)c(C(=O)O)cn(C3CC3)c12
MIC [1]: 0.39 to 16 µg/mL (≈ 0.696 to 28.5 µM) | MIC [2]: 0.39 to 16 µg/mL (≈ 0.696 to 28.5 µM)

CO/N=C1\C(=O)N(CCN2CCC[C@H]3CN(c4c(F)cc5c(=O)c(C(=O)O)cn(C6CC6)c5c4OC)C[C@H]32)c2cc(F)ccc21
MIC [1]: 0.39 to 16 µg/mL (≈ 0.627 to 25.7 µM) | MIC [2]: 0.39 to 16 µg/mL (≈ 0.627 to 25.7 µM)

CCO/N=C1\C(=O)N(CCN2CCC[C@H]3CN(c4c(F)cc5c(=O)c(C(=O)O)cn(C6CC6)c5c4OC)C[C@H]32)c2ccc(F)cc21
MIC [1]: 0.39 to 16 µg/mL (≈ 0.614 to 25.2 µM) | MIC [2]: 0.39 to 16 µg/mL (≈ 0.614 to 25.2 µM)

COc1c(N2C[C@@H]3CCCN(CCN4C(=O)/C(=N\NC(N)=O)c5ccccc54)[C@@H]3C2)c(F)cc2c(=O)c(C(=O)O)cn(C3CC3)c12
MIC [1]: 0.39 to 16 µg/mL (≈ 0.617 to 25.3 µM) | MIC [2]: 0.39 to 16 µg/mL (≈ 0.617 to 25.3 µM)

Cc1ccc2c(c1)/C(=N\O)C(=O)N2CCCN1CCN(c2cc3c(cc2F)c(=O)c(C(=O)O)cn3C2CC2)CC1
MIC [3]: 0.1 to 64 µg/mL (≈ 0.183 to 117 µM)

CCn1cc(C(=O)O)c(=O)c2cc(F)c(N3CCN(CN4C(=O)/C(=N\c5ncc(Cc6cc(OC)c(OC)c(OC)c6)c(N)n5)c5cc(F)ccc54)CC3)cc21
MIC [4]: 0.78 to 3.13 µg/mL (≈ 1.01 to 4.07 µM)

COc1c(N2C[C@@H]3CCCN(CCN4C(=O)C(=O)c5cc(F)ccc54)[C@@H]3C2)c(F)cc2c(=O)c(C(=O)O)cn(C3CC3)c12
MIC [1]: 0.39 to 16 µg/mL (≈ 0.658 to 27 µM) | MIC [2]: 0.39 to 16 µg/mL (≈ 0.658 to 27 µM)

CCO/N=C1/C(=O)N(CCn2cc(CN3CCC[C@H]4CN(c5c(F)cc6c(=O)c(C(=O)O)cn(C7CC7)c6c5OC)C[C@H]43)nn2)c2ccc(Br)cc21
MIC [3]: 0.1 to 0.78 µg/mL (≈ 0.129 to 1 µM)

COc1c(N2C[C@@H]3CCCN(CN4C(=O)/C(=N\NC(N)=S)c5cc(F)ccc54)[C@@H]3C2)c(F)cc2c(=O)c(C(=O)O)cn(C3CC3)c12
MIC [1]: 0.39 to 16 µg/mL (≈ 0.598 to 24.6 µM) | MIC [2]: 0.39 to 16 µg/mL (≈ 0.598 to 24.6 µM)

COc1c(N2C[C@@H]3CCCN(Cc4cn(CCN5C(=O)/C(=N/O)c6ccccc65)nn4)[C@@H]3C2)c(F)cc2c(=O)c(C(=O)O)cn(C3CC3)c12
MIC [3]: 0.1 to 0.78 µg/mL (≈ 0.149 to 1.16 µM)

COc1c(N2C[C@@H]3CCCN(CN4C(=O)C(=O)c5cc(F)ccc54)[C@@H]3C2)c(F)cc2c(=O)c(C(=O)O)cn(C3CC3)c12
MIC [1]: 0.39 to 16 µg/mL (≈ 0.674 to 27.7 µM) | MIC [2]: 0.39 to 16 µg/mL (≈ 0.674 to 27.7 µM)

COc1c(N2C[C@@H]3CCCN(CN4C(=O)/C(=N\O)c5cc(F)ccc54)[C@@H]3C2)c(F)cc2c(=O)c(C(=O)O)cn(C3CC3)c12
MIC [1]: 0.39 to 16 µg/mL (≈ 0.657 to 27 µM) | MIC [2]: 0.39 to 16 µg/mL (≈ 0.657 to 27 µM)

COc1c(N2C[C@@H]3CCCN(CN4C(=O)/C(=N\O)c5ccccc54)[C@@H]3C2)c(F)cc2c(=O)c(C(=O)O)cn(C3CC3)c12
MIC [1]: 0.39 to 16 µg/mL (≈ 0.678 to 27.8 µM) | MIC [2]: 0.39 to 16 µg/mL (≈ 0.678 to 27.8 µM)

Cc1ccc2c(c1)/C(=N\NC(N)=S)C(=O)N2CCCN1CCN(c2cc3c(cc2F)c(=O)c(C(=O)O)cn3C2CC2)CC1
MIC [3]: 0.1 to 64 µg/mL (≈ 0.165 to 106 µM)

COc1c(N2C[C@@H]3CCCN(CN4C(=O)/C(=N\NC(N)=O)c5cc(F)ccc54)[C@@H]3C2)c(F)cc2c(=O)c(C(=O)O)cn(C3CC3)c12
MIC [1]: 0.39 to 16 µg/mL (≈ 0.614 to 25.2 µM) | MIC [2]: 0.39 to 16 µg/mL (≈ 0.614 to 25.2 µM)

CCn1cc(C(=O)O)c(=O)c2cc(F)c(N3CCN(CN4C(=O)/C(=N\c5ncc(Cc6cc(OC)c(OC)c(OC)c6)c(N)n5)c5cc(F)ccc54)C(C)C3)c(F)c21 (stereo not given)
MIC [4]: 0.78 to 3.13 µg/mL (≈ 0.974 to 3.91 µM)

Cc1ccc2c(c1)/C(=N\NC(N)=O)C(=O)N2CCCN1CCN(c2cc3c(cc2F)c(=O)c(C(=O)O)cn3C2CC2)CC1
MIC [3]: 0.1 to 64 µg/mL (≈ 0.17 to 109 µM)

COc1c(N2C[C@@H]3CCCN(Cc4cn(CCN5C(=O)/C(=N/NC(N)=O)c6cc(Br)ccc65)nn4)[C@@H]3C2)c(F)cc2c(=O)c(C(=O)O)cn(C3CC3)c12
MIC [3]: 0.1 to 0.78 µg/mL (≈ 0.126 to 0.985 µM)

CO/N=C1\C(=O)N(CN2CCC[C@H]3CN(c4c(F)cc5c(=O)c(C(=O)O)cn(C6CC6)c5c4OC)C[C@H]32)c2ccccc21
MIC [1]: 0.39 to 16 µg/mL (≈ 0.661 to 27.1 µM) | MIC [2]: 0.39 to 16 µg/mL (≈ 0.661 to 27.1 µM)

COc1c(N2CCNC(C)C2)c(F)cc2c(=O)c(C(=O)O)cn(C3CC3)c12 (stereo not given) [GATIFLOXACIN]
MIC [3]: 0.5 µg/mL (≈ 1.33 µM)

CCc1cc(C(N)=S)ccn1 [ETHIONAMIDE]
MIC [4]: 2.5 µg/mL (≈ 15 µM)

COc1c(N2C[C@@H]3CCCN(CCN4C(=O)/C(=N\O)c5ccccc54)[C@@H]3C2)c(F)cc2c(=O)c(C(=O)O)cn(C3CC3)c12
MIC [1]: 0.39 to 16 µg/mL (≈ 0.661 to 27.1 µM) | MIC [2]: 0.39 to 16 µg/mL (≈ 0.661 to 27.1 µM)

COc1c(N2C[C@@H]3CCCN(Cc4cn(CCN5C(=O)/C(=N/O)c6cc(Br)ccc65)nn4)[C@@H]3C2)c(F)cc2c(=O)c(C(=O)O)cn(C3CC3)c12
MIC [3]: 0.1 to 0.78 µg/mL (≈ 0.133 to 1.04 µM)

COc1cc(Cc2cnc(/N=C3\C(=O)N(CN4CCN(c5c(F)cc6c(=O)c(C(=O)O)cn(C7CC7)c6c5OC)CC4C)c4ccc(Cl)cc43)nc2N)cc(OC)c1OC (stereo not given)
MIC [4]: 0.78 to 3.13 µg/mL (≈ 0.927 to 3.72 µM)

COc1cc(Cc2cnc(/N=C3\C(=O)N(CN4CCN(c5c(F)cc6c(=O)c(C(=O)O)cn(C7CC7)c6c5OC)CC4C)c4ccc(F)cc43)nc2N)cc(OC)c1OC (stereo not given)
MIC [4]: 0.78 to 3.13 µg/mL (≈ 0.946 to 3.79 µM)

COc1c(N2C[C@@H]3CCCN(Cc4cn(CCN5C(=O)C(=O)c6cc(Br)ccc65)nn4)[C@@H]3C2)c(F)cc2c(=O)c(C(=O)O)cn(C3CC3)c12
MIC [3]: 0.1 to 0.78 µg/mL (≈ 0.136 to 1.06 µM)

COc1c(N2C[C@@H]3CCCN(CN4C(=O)/C(=N\NC(N)=O)c5ccccc54)[C@@H]3C2)c(F)cc2c(=O)c(C(=O)O)cn(C3CC3)c12
MIC [1]: 0.39 to 16 µg/mL (≈ 0.631 to 25.9 µM) | MIC [2]: 0.39 to 16 µg/mL (≈ 0.631 to 25.9 µM)
